How the values were obtained:
[1] = system: L6 cells; assay: Palmitate (fatty acid) oxidation assay in L6 cells; type: cell-based; settings: FIG. 2, 3, 11
Method: Palmitate oxidation was determined by a modification of quantitative measuring the rate of ^14CO2 production from ^14C-labeled palmitic acid as described previously (24). The KHB for these incubations was supplemented with fatty-acid poor albumin, dialyzed against the same buffer (three changes). The final albumin concentration was 1%. After an initial 10 min of incubation, all samples received 2 mM carnitine and [1-^14C]-palmitic acid (1 μCi/mole), and other additions as noted, and incubations continued to the end of 3 h. Aliquots of 0.8 mL were taken from each well to an eppendorf tube. […] 200 μL of 3 M perchloric acid was carefully added to the 0.8 mL to ensure no acid was deposited on the side of the tube, and the lid was quickly closed. The tubes were incubated overnight to allow the [^14C] CO2 to be absorbed into the wick. The caps were removed with scissors and placed in 10 mL of liquid scintillation fluid for counting.

[2] = system: L6 cells; assay: Glucose uptake assay (2-deoxyglucose uptake) in L6 cells; type: cell-based; settings: FIG. 1, 4, 10
Method: Glucose uptake was determined as the rate of 2-deoxy-D-[2,6-^3H]glucose uptake, using modification of a previous method (15). The cells were first incubated for 15 min with Krebs-Henseleit Bicarbonate buffer (KHB), glucose, and other agents as indicated. At this point, the labeled deoxyglucose (0.6 μCi) was added to each well and the incubation continued for 45 min. The media was aspirated, and the wells were washed three times with ice-cold KHB to remove exogenous label. The cells were lysed by the addition of 0.1% Triton-X100 (1 mL). Samples of each well were mixed with aqueous scintillation fluid and measured by liquid scintillation counting.

[3] = system: AMP deaminase (AMPD); assay: AMP deaminase enzymatic assay (in vitro); type: biochemical; settings: for AMPD inhibition, comparison of three synthesized compounds: FIG. 9
Method: AMP deaminase activity was measured as described by Ashby and Frieden (4). Standard assay monitored the absorbance change at 285 nm as a result of AMP conversion to IMP in a reaction volume of 2 mL containing 50 mM imidazole-HCl (pH 7.0), 2 mM AMP and 150 mM KCl. One unit of enzyme activity is defined as the amount of protein required to produce 1 μmol IMP per min at 25° C. under standard conditions.

[4] = system: L6 cells; assay: Ammonia assay, ammonia formation by intact cells; type: cell-based; settings: FIG. 7, 12
Method: Ammonia was measured as described by Kun et al. (19). Briefly, after two hours incubation with or without 10 mM metformin, 0.5 mL of samples were added into cuvette and mixed with assay reagents (100 mM Tris buffer, 10 mM α-ketoglutaric acid, 0.24 mM NADH in 1 mL). Absorbance was measured at 340 nm with spectro-photometer (Hitachi, U-2000). 20 μL of glutamate dehydrogenase (200 μg/mL) was added into cuvette and mixed, and absorbance was measured again after 1 hour at 340 nm.

[5] = system: L6 muscle cell line; assay: Glycogen synthesis in L6 muscle cell line; type: cell-based
[6] = system: L6 muscle cell line; assay: Lactate formation in L6 muscle cell line; type: cell-based
[7] = system: AMPK; assay: Phosphorylation of AMPK; type: cell-based
[8] = system: cells with adenylate kinase knockout; assay: Metformin action in cells with adenylate kinase knockout (siRNA); type: cell-based; settings: adenylate kinase knockout using siRNA; FIG. 5
[9] = system: acetyl CoA carboxylase; assay: Phosphorylation of acetyl CoA carboxylase; type: cell-based

AMPD inhibition, comparison of three synthesized compounds [3]	SMILES	palmitate / fatty acid oxidation [1]	glucose transport / glucose uptake [2]	ammonia formation [4]	also measured
somewhat less effective	COC(=O)c1cccc2[nH]ncc12 [SKTT-12, methyl 1H-indazole-4-carboxylate]				
similar	COC(=O)c1n[nH]c2ccccc12 [SKTT-2, methyl 1H-indazole-3-carboxylate]	replicated the metformin stimulation of fatty acid oxidation	stimulated glucose uptake	suppressed ammonia formation	

More lines, now with the values behind:

SMILES	AMPD inhibition, comparison of three synthesized compounds [3]	palmitate / fatty acid oxidation [1]	glucose transport / glucose uptake [2]	ammonia formation [4]	also measured
C=C(C)[C@H]1Cc2c(ccc3c2O[C@@H]2COc4cc(OC)c(OC)cc4[C@@H]2C3=O)O1 [rotenone]		leads only to inhibition of fatty acid oxidation	does increase glucose uptake		
[NH-]c1c[n+](N2CCOCC2)no1 [SIN-1]		inhibits fatty acid oxidation	stimulation of glucose transport		
NC(=O)c1n[nH]c2ccccc12 [SKTT-1, 1H-indazole-3-carboxamide]	similar	replicated the metformin stimulation of fatty acid oxidation	stimulated glucose uptake	suppressed ammonia formation	AMPD inhibition curves, potency compared with metformin ([3]; FIG. 8, compared with metformin): more potent
CN(C)C(=N)N=C(N)N [metformin]		stimulation	stimulation of glucose transport	decrease in ammonia formation	glycogen synthesis [5]: inhibition of glycogen synthesis; lactate formation [6]: stimulation; phosphorylation of the AMPK [7]: direct phosphorylation of the AMPK; effect of adenylate kinase deletion on metformin action [8]: no effect; phosphorylation of acetyl CoA carboxylase [9]: phosphorylation; AMPD activity measured in vitro ([3]; FIG. 6): inhibited AMPD activity

Source: US20120130078A1, “INDAZOLE DERIVATIVES AS ADENOSINE MONOPHOSPHATE DEAMINASE (AMPD) INHIBITORS FOR USE IN DIABETES AND RELATED DISEASES OF METABOLIC SYNDROME” (priority 2010, published 2012)
